According to patent US20100119613A1, “PROCESS TO ACTIVATE EXTRACTS DERIVED FROM LIVING ORGANISMS USING LONG WAVE UV IRRADIATION AND COMPOSITIONS COMPRISING SAID ACTIVATED EXTRACT” (Medizinische Universitat Wien, priority 2007, published 2010):

Legend:
[1] = system: HO-1; settings: literature (Ishikawa 1997); cited from earlier work
[2] = system: Heme Oxygenase 1 (HO-1); experiment: HO-1 mRNA expression in dermal fibroblasts (qPCR); type: cell-based, human; settings: for HO-1 mRNA expression relative to non-treated control cells: dermal fibroblasts; for Effect on OxPAPC-mediated HO-1 induction: fibroblasts incubated with the ROS scavenger prior to exposure to OxPAPC
Description: Neonatal Human Epidermal Keratinocytes (KC) derived from foreskin are obtained from Clonetics (San Diego, Calif.). Keratinocytes are cultured in keratinocyte growth medium (KGM) up to the fifth passage. Human neonatal skin fibroblasts (FB) are obtained from Cascade Biologics (Portland, Oreg.) and grown in Dulbecco's modified Eagle's medium, Gibco (Gaithersburg, Md.) supplemented with 10% fetal calf serum (FCS) and penicillin/streptomycin (1000 U per ml, Gibco) to sub-confluence.
RNA is isolated using Trizol reagent (Invitrogen). Nine hundred ng of total RNA are reverse-transcribed with murine leukemia virus reverse transcriptase (MuLV, Applied Biosystems, Foster City, Calif.) and oligo(dT) primers. The following forward (F) and reverse (R) primers are used: HO-1: F, 5′-[…]-3′; R, 5′-[…]-3′; B2M; F 5′-[…]-3′R,5′-[…]-3′ qPCR is performed using LightCycler technology and the Fast Start SYBR Green I kit (both Roche Applied Science, Basel, Switzerland). In all assays, cDNA is amplified using a standardized program (10-min denaturing step; 55 cycles of 5 s at 95° C., […], and 15 s at 72° C.; melting point analysis in 0.1° C. steps). Quantification of target gene expression is performed using a mathematical model by Pfaffl (Pfaffl, Nucleic Acids Res. 29, e45 (2001)). The expression of the target molecule is normalized to the expression of β-2 microglobulin.
PAPC is oxidized by exposure of the dry lipid to air for 72 h to generate OxPAPC. PAPC dried to a thin film on a glass support is irradiated with UVA-1 with 160 J/cm^2 to generate UV-PAPC. For treatment with singlet oxygen all lipids are vortexed in PBS containing 20 μM Rose Bengal and irradiated with 10 J/cm^2 UVA-1 (FIGS. 5 A,B) or under a commercial 35 W halogen lamp at a distance of 30 cm for 30 minutes (FIG. 5 C). The extent of oxidation was monitored by ESI-MS as described previously (Watson, J. Biol. Chem. 272, 13597-13607 (1997)). The UVA-1 irradiated lipids are solubilized, emulsified or suspended in the respective growth medium before skin cells or the skin equivalent are treated.
Human neonatal skin fibroblasts (FB) are obtained from Cascade Biologics (Portland, Oreg.) and grown in Dulbecco's modified Eagle's medium, Gibco (Gaithersburg, Md.) supplemented with 10% fetal calf serum (FCS) and penicillin/streptomycin (1000 U per ml, Gibco) to sub-confluence.
Fibroblasts are treated with autoxidized PAPC, UVA-1 treated PAPC or UVA-1 untreated PAPC (100 μg/ml) as described in Example 1. Total RNA is isolated after 4 hours from treated cells and untreated control cells.
Relative expression of HO-1 mRNA in dermal fibroblasts is determined 4 h after stimulation with lipids or extracts as specified above using quantitative real-time PCR (qPCR). Normalization is standardized by comparison to the expression of the housekeeping gene beta-2-microglobulin (B2M) as described in Example 1.
Fibroblasts are treated with lipids or extract as described in Example 1 relating to treatment with oxPAPC. Total RNA is isolated 4 h after stimulation with 100 μg/ml of lipids or extract.

[3] = TLC fractions of OxPAPC and synthetic phospholipids (FIG. 2)
[4] = lipid not irradiated with UVA-1 in the presence of RB (FIG. 5B)

Molecule: 1-palmitoyl-2-(epoxyisoprostane E2)-sn-glycero-3-phosphorylcholine [PEIPC]
- HO-1 expression [1]: strong inducer of HO-1 expression

Molecule: CCCCCCCCCCCCCC(=O)OC[C@H](COP(=O)([O-])OCC[N+](C)(C)C)OC(=O)CCCCCCCCCCCCC [DMPC, di-myristoyl-phosphorylcholine]
- HO-1 mRNA expression relative to non-treated control cells [2, 3]: failed to induce HO-1 expression

Molecule: CCCCCCCCCCCCCCCC(=O)OC[C@@H](O)COP(=O)([O-])OCC[N+](C)(C)C [LysoPC, 1-palmitoyl-2-lyso-sn-glycero-3-phosphorylcholine]
- HO-1 mRNA expression relative to non-treated control cells [2, 3]: failed to induce HO-1 expression

Molecule: CCCCCCCCCCCCCCCC(=O)OC[C@H](COP(=O)([O-])OCC[N+](C)(C)C)OC(=O)CCCC(=O)O [PGPC, 1-palmitoyl-2-glutaroyl-sn-glycero-3-phosphorylcholine]
- HO-1 mRNA expression relative to non-treated control cells [2, 3]: failed to induce HO-1 expression

Molecule: CCCCC/C=C\C/C=C\CCCCCCCC(=O)O[C@H](COC(=O)CCCCCCCCCCCCCCC)COP(=O)([O-])OCC[N+](C)(C)C [PLPC, 1-palmitoyl-2-linoleyl-sn-3-glycerophosphorylcholine]
- HO-1 mRNA expression relative to non-treated control cells [2, 4]: did not induce Heme Oxygenase 1 (HO-1) mRNA expression

Molecule: CCCCCCCC/C=C\CCCCCCCC(=O)O[C@H](COC(=O)CCCCCCCCCCCCCCC)COP(=O)([O-])OCC[N+](C)(C)C [POPC, 1-palmitoyl-2-oleoyl-sn-3-glycerophosphorylcholine]
- HO-1 mRNA expression relative to non-treated control cells [2, 4]: did not induce Heme Oxygenase 1 (HO-1) mRNA expression

Molecule: CCCCCCCCCCCCCCCC(=O)OC[C@H](COP(=O)(O)OCC[N+](C)(C)C)OC(=O)CCCC=O [POVPC, 1-palmitoyl-2-(5-oxovaleroyl)-sn-glycero-3-phosphorylcholine]
- HO-1 mRNA expression relative to non-treated control cells [2, 3]: failed to induce HO-1 expression

Molecule: c1ccc(P(c2ccccc2)c2ccccc2)cc1 [TPP, triphenylphosphine]
- Effect on capacity of OxPAPC to induce HO-1 expression ([2]; OxPAPC treated with triphenylphosphine (not shown)): only slightly reduced

Molecule: O=C1O[C@H]([C@@H](O)CO)C(O)=C1O [vitamin C]
- Effect on OxPAPC-mediated HO-1 induction [2]: did not significantly reduce

Molecule: CC1=C(/C=C/C(C)=C/C=C/C(C)=C/C=C/C=C(C)/C=C/C=C(C)/C=C/C2=C(C)CCCC2(C)C)C(C)(C)CCC1 [β-carotene]
- Effect on OxPAPC-mediated HO-1 induction [2]: did not significantly reduce

Molecule: vitamin E
- Effect on OxPAPC-mediated HO-1 induction [2]: did not significantly reduce
